In US20080287375A1, “Selective Glycosidase Inhibitors, Methods of Making Inhibitors, and Uses Thereof” (SIMON FRASER UNIVERSITY, priority 2005, published 2008):
“Also recorded” adds a separate entry of the source. Marks after values point to notes of the source that are not given here. One block for each molecule: values may come before it.

Key:
[1] = system: O-GlcNAc modified proteins in rat tissues; experiment: Oral availability: tissue O-GlcNAc levels in rats fed inhibitor in chow; format: in vivo
Experimental: To determine if the inhibitor 9c is orally available, it was incorporated into the chow (Lab Diet 5001 Rodent Diet, PMI Nutrition International, LLC). To make the rat chow, 600 g of the ground chow was mixed with 355 ml of water and 5 μL of the inhibitor dissolved in ethanol. Small pieces were then prepared with a pasta machine (Pasta Express, Creative) and dehydrated overnight at 37° C. (Snackmaster Dehydrator, American Harvest). Five sets of chow were made with the following amounts of inhibitor: 0 mg kg^−1 days^−1, 100 or 1000 mg kg^−1 days^−1 of the deprotected (polar) inhibitor, and 100 or 1000 mg kg^−1 day^−1 of the protected (non-polar) inhibitor. […] Ten five-week old healthy Sprague-Dawley rats (two per set of food) were then allowed to feed on the rat chow for three days. The animals were then sacrificed and tissues were collected, homogenized, and analyzed as described above.

O-GlcNAcase [2] = molecular target: T1, O-GlcNAcase (Homo sapiens, UniProt O60502); conditions: for Selectivity Ratio (β-Hex KI/O-GlcNAcase KI): Table 2
T1 sequence (O60502 1-916): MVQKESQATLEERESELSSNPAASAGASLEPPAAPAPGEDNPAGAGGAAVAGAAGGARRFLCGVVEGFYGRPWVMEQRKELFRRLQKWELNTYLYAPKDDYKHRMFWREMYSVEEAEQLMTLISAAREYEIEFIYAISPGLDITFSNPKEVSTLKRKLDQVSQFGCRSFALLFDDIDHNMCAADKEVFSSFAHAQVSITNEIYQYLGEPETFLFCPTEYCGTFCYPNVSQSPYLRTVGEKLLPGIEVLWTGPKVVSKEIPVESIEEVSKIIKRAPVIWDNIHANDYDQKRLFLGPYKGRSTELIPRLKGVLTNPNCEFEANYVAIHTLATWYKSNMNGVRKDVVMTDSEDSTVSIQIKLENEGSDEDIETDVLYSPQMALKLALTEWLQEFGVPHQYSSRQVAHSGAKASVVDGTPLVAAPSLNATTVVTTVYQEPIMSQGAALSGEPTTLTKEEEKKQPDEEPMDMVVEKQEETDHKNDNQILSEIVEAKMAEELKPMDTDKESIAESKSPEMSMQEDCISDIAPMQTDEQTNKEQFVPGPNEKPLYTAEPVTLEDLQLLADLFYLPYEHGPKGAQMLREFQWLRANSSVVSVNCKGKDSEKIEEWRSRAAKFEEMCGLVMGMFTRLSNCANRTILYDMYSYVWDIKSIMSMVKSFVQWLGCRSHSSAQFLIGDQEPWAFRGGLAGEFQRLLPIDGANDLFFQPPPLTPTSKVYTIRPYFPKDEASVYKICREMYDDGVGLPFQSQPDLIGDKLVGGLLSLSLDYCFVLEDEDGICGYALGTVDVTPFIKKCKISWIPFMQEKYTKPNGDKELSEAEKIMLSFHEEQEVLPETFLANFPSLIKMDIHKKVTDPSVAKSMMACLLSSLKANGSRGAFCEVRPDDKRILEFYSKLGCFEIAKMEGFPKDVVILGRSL

O-GlcNAcase [3] = molecular target: T1, O-GlcNAcase; experiment: biochemical
[4] = system: human placental β-hexosaminidase; experiment: Inhibition of β-hexosaminidase, substrate MU-GlcNAc (5), Dixon plots
O-GlcNAcase [5] = molecular target: T1, O-GlcNAcase; experiment: Inhibition of O-GlcNAcase, substrate pNP-GlcNAc, Dixon plots; conditions: for Selectivity Ratio (β-Hexosaminidase KI/O-GlcNAcase KI): Table 3
[6] = system: human placental β-hexosaminidase; experiment: Inhibition of β-hexosaminidase, substrate pNP-GlcNAc, Dixon plots; conditions: for Ki: read-out: β-Hexosaminidase KI, Table 3, substrate pNP-GlcNAc 0.5 mM, pH 4.25
human β-hexosaminidase = experiment: Michaelis-Menten kinetics of β-hexosaminidase catalyzed hydrolysis of 4-methylumbelliferyl GlcNAc substrate analogues; format: biochemical; conditions: 37° C., pH 4.25
Text: These compounds were first tested with the lysosomal human β-hexosamindase since this enzyme is known to proceed via a mechanism involving anchimeric assistance (FIG. 2A). Although Michaelian saturation kinetics were not observed for all substrates (Table 1), Vmax[E]o/KM, which is proportional to the second order rate constant governing the enzyme catalyzed reaction, could be determined from the initial slope of the Michaelis-Menten plot (FIG. 2A Inset). […] As expected, decreasing the basicity of the carbonyl oxygen has a deleterious effect on catalysis.

O-GlcNAcase [7] = molecular target: T1, O-GlcNAcase; experiment: Michaelis-Menten kinetics of O-GlcNAcase catalyzed hydrolysis of 4-methylumbelliferyl GlcNAc substrate analogues; format: biochemical; conditions: 37° C., pH 6.5
Text: For O-GlcNAcase the value of Vmax[E]0/KM is also dependant on the extent of fluorine substitution but the slope is more shallow (ρ=−0.42±0.08, FIG. 2C).

[8] = rats fed inhibitor in food for three days
[9] = read-out: β-Hexosaminidase KI, Table 2, substrate 5 at 0.64 mM, pH 4.25, Dixon plots
[10] = read-out: KI, β-hexosaminidase, human lysosomal β-hexosaminidase

- Ki (O-GlcNAcase [5]): 1.2 µM
- Selectivity Ratio (β-Hexosaminidase KI/O-GlcNAcase KI) (O-GlcNAcase [5]): 1
- increase in KI for β-hexosaminidase compared to parent PUGNAc [6]: 33 fold
- Ki [6]: 1.2 µM
Structure (SMILES): CCC(=O)N[C@H]1C(=NOC(=O)Nc2ccccc2)O[C@H](CO)[C@@H](O)[C@@H]1O [Compound 22a]

- Ki (O-GlcNAcase [5]): 2.4 µM
- Selectivity Ratio (β-Hexosaminidase KI/O-GlcNAcase KI) (O-GlcNAcase [5]): 11
- Ki [6]: 26 µM
Structure (SMILES): CCCC(=O)N[C@H]1C(=NOC(=O)Nc2ccccc2)O[C@H](CO)[C@@H](O)[C@@H]1O [Compound 22b, O-(2-deoxy-2-butamido-D-glucopyranosylidene)amino N-Phenylcarbamate]

- Ki (O-GlcNAcase [5]): 40 µM
- Selectivity Ratio (β-Hexosaminidase KI/O-GlcNAcase KI) (O-GlcNAcase [5]): 6
- Ki [6]: 220 µM
Structure (SMILES): CCCCC(=O)NC1C(=NOC(=O)Nc2ccccc2)OC(CO)C(O)C1O (stereo not shown) [Compound 22c]

- Ki (O-GlcNAcase [5]): 9 µM
- Selectivity Ratio (β-Hexosaminidase KI/O-GlcNAcase KI) (O-GlcNAcase [5]): 2
- Ki [6]: 20 µM
Structure (SMILES): CC(C)C(=O)N[C@H]1C(=NOC(=O)Nc2ccccc2)O[C@H](CO)[C@@H](O)[C@@H]1O [Compound 22e, O-(2-deoxy-2-isobutamido-D-glucopyranosylidene)amino N-Phenylcarbamate]

- Ki (O-GlcNAcase [5]): 190 µM
- Selectivity Ratio (β-Hexosaminidase KI/O-GlcNAcase KI) (O-GlcNAcase [5]): ≧6
- Ki [6]: > 1200 µM
Structure (SMILES): CC(C)CC(=O)N[C@H]1C(=NOC(=O)Nc2ccccc2)O[C@H](CO)[C@@H](O)[C@@H]1O [Compound 22f, O-(2-deoxy-2-isovaleramido-D-glucopyranosylidene)amino N-Phenylcarbamate]

- Selectivity Ratio (β-Hex KI/O-GlcNAcase KI) (O-GlcNAcase [2]): 0.8
- Ki (O-GlcNAcase [3]): 1500 µM
- Ki [4, 10]: 1200 µM
- Ki [4, 9]: 1200 µM
Structure (SMILES): CC(=O)N[C@H]1C(O)O[C@H](CO)[C@@H](O)[C@@H]1O (stereo partly shown) [GlcNAc, N-acetylglucosamine, reference compound]

- Km (human β-hexosaminidase): 880 ± 50 µM
- Vmax [E]o (human β-hexosaminidase): 8.3 ± 0.2 µmol/min/mg
- Km (O-GlcNAcase [7]): 430 ± 40 µM
- Vmax [E]o (O-GlcNAcase [7]): 0.74 ± 0.02 µmol/min/mg
Structure (SMILES): CC(=O)N[C@H]1[C@H](Oc2ccc3c(C)cc(=O)oc3c2)O[C@H](CO)[C@@H](O)[C@@H]1O [MuGlcNAc, reference compound]

- Ki [6]: 0.036 µM
- Ki [4, 10]: 0.036 µM
- Ki [4, 9]: 0.036 µM
Structure (SMILES): CC(=O)N[C@H]1/C(=N/OC(=O)Nc2ccccc2)O[C@H](CO)[C@@H](O)[C@@H]1O [PUGNAc, O-(2-acetamido-2-deoxy-D-glucopyranosylidene)amino N-phenylcarbamate]

Further lines, the molecule ahead of its results:

Structure (SMILES): CCCC1=N[C@@H]2[C@@H](OC(C)=O)[C@H](OC(C)=O)[C@@H](COC(C)=O)O[C@@H]2S1 [9c (protected), 3,4,6-tri-O-acetyl-1,2-dideoxy-2′-propyl-α-D-glucopyranoso-[2,1-d]-Δ2′-thiazoline]
- cellular levels of O-GlcNAc modified proteins in brain tissue, oral 100 mg/kg/day ([1]; rats fed inhibitor in chow for three days): marked increases
- cellular levels of O-GlcNAc modified proteins in brain tissue, oral 1000 mg/kg/day ([1]; rats fed inhibitor in chow for three days, compared with 100 mg/kg/day): even greater
- O-GlcNAc modified proteins in brain, muscle, pancreas, fat and spleen, oral 100 mg kg^−1 day^−1 (FIG. 12 legend) [1, 8]: large increases
- O-GlcNAc modified proteins in tissues, oral 1000 mg kg^−1 days^−1 (FIG. 12 legend) [1, 8]: slightly greater increases

Structure (SMILES): CCC1=N[C@@H]2[C@@H](O)[C@H](O)[C@@H](CO)O[C@@H]2S1 [Compound 9b, 1,2-dideoxy-2′-ethyl-α-D-glucopyranoso-[2,1-d]-Δ2′-thiazoline]
- inhibition of O-GlcNAcase, in words (O-GlcNAcase [2]): potent inhibitors
- selectivity for O-GlcNAcase over β-hexosaminidase, in words (O-GlcNAcase [2]): remarkable selectivity
- Selectivity Ratio (β-Hex KI/O-GlcNAcase KI) (O-GlcNAcase [2]): 270
- Ki (O-GlcNAcase [3]): 0.12 µM
- increase in KI for β-hexosaminidase compared to parent NAG-thiazoline (9a) [4]: 460 fold
- Ki [4, 9]: 32 µM

Structure (SMILES): CCCCC1=N[C@@H]2[C@@H](O)[C@H](O)[C@@H](CO)O[C@@H]2S1 [Compound 9d, 1,2-dideoxy-2′-butyl-α-D-glucopyranoso-[2,1-d]-Δ2′-thiazoline]
- selectivity ratio for O-GlcNAcase over β-hexosaminidase (O-GlcNAcase [2]): 3100 fold
- Selectivity Ratio (β-Hex KI/O-GlcNAcase KI) (O-GlcNAcase [2]): 3100
- Ki (O-GlcNAcase [3]): 1.5 µM
- Ki [4, 9]: 4600 µM

Structure (SMILES): CCCCCC1=N[C@@H]2[C@@H](O)[C@H](O)[C@@H](CO)O[C@@H]2S1 [Compound 9e, 1,2-dideoxy-2′-pentyl-α-D-glucopyranoso-[2,1-d]-Δ2′-thiazoline]
- Selectivity Ratio (β-Hex KI/O-GlcNAcase KI) (O-GlcNAcase [2]): 100
- Ki (O-GlcNAcase [3]): 57 µM
- Ki [4, 9]: 11000 µM

Structure (SMILES): CC(C)C1=N[C@@H]2[C@@H](O)[C@H](O)[C@@H](CO)O[C@@H]2S1 [Compound 9f, 1,2-dideoxy-2′-isopropyl-α-D-glucopyranoso-[2,1-d]-Δ2′-thiazoline]
- inhibition of O-GlcNAcase, in words (O-GlcNAcase [2]): good inhibitors; also recorded: potent inhibitors
- selectivity for O-GlcNAcase over β-hexosaminidase, in words (O-GlcNAcase [2]): remarkable selectivity
- selectivity ratio for O-GlcNAcase over β-hexosaminidase (O-GlcNAcase [2]): 700 fold
- Selectivity Ratio (β-Hex KI/O-GlcNAcase KI) (O-GlcNAcase [2]): 700
- Ki (O-GlcNAcase [3]): 1.6 µM
- Ki [4, 9]: 720 µM

Structure (SMILES): CCCCCC(=O)N[C@H]1C(=NOC(=O)Nc2ccccc2)O[C@H](CO)[C@@H](O)[C@@H]1O [Compound 22d, O-(2-deoxy-2-hexamido-D-glucopyranosylidene)amino N-Phenylcarbamate]
- Ki (O-GlcNAcase [5]): 210 µM
- Selectivity Ratio (β-Hexosaminidase KI/O-GlcNAcase KI) (O-GlcNAcase [5]): ≧5
- Ki [6]: > 900 µM

Structure (SMILES): Cc1cc(=O)oc2cc(O[C@@H]3O[C@H](CO)[C@@H](O)[C@H](O)[C@H]3NC(=O)CF)ccc12 [MuGlcNAc-F1, 4-Methylumbelliferyl 2-deoxy-2-fluoroacetamido-β-D-glucopyranoside]
- Km (human β-hexosaminidase): 3800 ± 400 µM
- Vmax [E]o (human β-hexosaminidase): 3.3 ± 0.2^b μmol min^−1 mg^−1
- Km (O-GlcNAcase [7]): 490 ± 60 µM
- Vmax [E]o (O-GlcNAcase [7]): 0.60 ± 0.03 µmol/min/mg

Structure (SMILES): Cc1cc(=O)oc2cc(O[C@@H]3O[C@H](CO)[C@@H](O)[C@H](O)[C@H]3NC(=O)C(F)F)ccc12 [MuGlcNAc-F2, 4-Methylumbelliferyl 2-deoxy-2-difluoroacetamido-β-D-glucopyranoside]
- Km (O-GlcNAcase [7]): 450 ± 50 µM
- Vmax [E]o (O-GlcNAcase [7]): 0.16 ± 0.01 µmol/min/mg

Structure (SMILES): Cc1cc(=O)oc2cc(O[C@@H]3O[C@H](CO)[C@@H](O)[C@H](O)[C@H]3NC(=O)C(F)(F)F)ccc12 [MuGlcNAc-F3, 4-Methylumbelliferyl 2-deoxy-2-trifluoroacetamido-β-D-glucopyranoside]
- Km (O-GlcNAcase [7]): 380 ± 30 µM
- Vmax [E]o (O-GlcNAcase [7]): 0.033 ± 0.001 µmol/min/mg
